# According to paper PMC6383986, “Fragment-Based Covalent Ligand Screening Enables Rapid Discovery of Inhibitors for the RBR E3 Ubiquitin Ligase HOIP” (Journal of the American Chemical Society, 2019):
# Entries after “also recorded” stand apart in the source; their conditions may differ.
# Tests used:
# [1] = biological target: T1, wild type HOIP RBR domain (Homo sapiens, UniProt Q96EP0); experiment: Protein LC-MS kinetics of covalent labeling; type: binding
# T1 construct: made in house; host or cells: E. coli BL21-GOLD(DE3)
# T1 sequence (Q96EP0 697-1072): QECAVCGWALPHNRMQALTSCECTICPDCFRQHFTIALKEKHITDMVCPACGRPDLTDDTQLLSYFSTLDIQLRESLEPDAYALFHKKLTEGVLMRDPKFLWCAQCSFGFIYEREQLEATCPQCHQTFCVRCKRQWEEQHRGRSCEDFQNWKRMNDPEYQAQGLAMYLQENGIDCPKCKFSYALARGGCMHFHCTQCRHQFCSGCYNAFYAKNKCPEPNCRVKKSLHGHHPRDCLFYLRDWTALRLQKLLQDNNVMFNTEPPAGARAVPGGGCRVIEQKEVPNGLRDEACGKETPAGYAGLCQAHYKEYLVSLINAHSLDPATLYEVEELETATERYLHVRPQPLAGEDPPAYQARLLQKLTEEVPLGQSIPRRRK
# Method: (§1) negative control and compound solutions data points were acquired after 0.5, 4, and 24 h […]
# (§2) Protocol as described above, using the HOIP RBR C885S mutant (155 µM stock solution in 50 mM HEPES, 150 mM NaCl, 1 mM DTT, pH 7.5) and 50 mM HEPES, 150 mM NaCl, pH 7.5 buffer.
# (§3) The stock solution at 4 µM (25 µL per sample, final concentration 2 µM, 87 µg/mL), was mixed with buffer (24.5 µL) and compound (5) (0.5 µL of 2, and 20 mM stock solutions in DMSO, giving a final concentration of 20 and 200 µM respectively, and 1% DMSO). Data points were acquired after 0.5 and 4 h incubation.
# The HOIP RBR domain wild type was diluted with 50 mM HEPES, 150 mM NaCl, pH 7.5 buffer to afford a new stock solution at 2.02 µM, which was aliquoted into 10 × 297 µL. Compound (5) stock solutions (3.0 µL each) at 0, 0.2, 0.8, 2, 4, 10, 20 and 40 mM in DMSO were added to give final compound concentrations at 0, 2, 8, 20, 40, 100, 200 and 400 µM respectively. Immediately after addition the samples were vortexed briefly and the time zero aliquots (25 µL) withdrawn, flash frozen in liquid nitrogen and stored at -80 °C. The protein solutions were incubated at 800 rpm (Eppendorf Thermomixer), 23 °C. Additional aliquots (all 25 µL) were similarly withdrawn after […]
# thawed individually and analyzed by protein mass spectrometry as described above. The total ion counts (TICs) detected for unlabelled HOIP and labelled HOIP-(5) conjugate within a peak elution range of 10 seconds were used to calculate the ratio of labelled HOIP RBR over total HOIP RBR content for each sample. The averaged data from 3 independent experiments were analyzed according to a two-step model of reversible ligand binding followed by irreversible covalent modification (Supplementary Figure S2A),11 fitted to a single exponential equation (equation 1, Supplementary Figure S2B) using GraFit (v.7). The observed rate constants (kobs) relate to Kd and kinact as depicted in equation 2 (Supplementary Figure S2C), although for compounds with weak affinities (such as fragments) the Kd is typically larger than the highest tested compound concentration (limited by aqueous solubility), and the kobs display a linear relationship to compound concentration, and a slope that equals to kinact/Kd (Figure 3D, Supplementary Figure […]
# Protein labelling: The HOIP RBR domain (16 µM) in buffer (50 mM HEPES, 150 mM NaCl, pH 7.5) was incubated with compound (5) (267 µM; 16-fold excess) at ambient temperature at 600 rpm (Heidolph Instruments) for 21 h. The protein was purified on a buffer exchanged spin chromatography column (Micro Bio-spin 6, Bio-Rad Laboratories) according to the vendor’s instructions to afford a stock solution of the HOIP RBR-(5) complex at a concentration of 7.6 µM (0.33 mg/mL) as determined by Nanodrop UV spectrophotometer. […]
# [2] = biological target: T2, HOIP RBR C885S (Homo sapiens, UniProt Q96EP0, C885S); experiment: Protein LC-MS labeling of active-site mutant; type: binding; details: 200 μM compound (100-fold excess), 2 μM protein, 4 h
# T2 construct: 697-1072; made in house; host or cells: E. coli BL21-GOLD(DE3)
# Method: as §1, §2, §3
# The HOIP RBR domain wild type was diluted with 50 mM HEPES, 150 mM NaCl, pH 7.5 buffer to afford a new stock solution at 2.02 µM, which was aliquoted into 10 × 297 µL. […]
# thawed individually and analyzed by protein mass spectrometry as described above. The total ion counts (TICs) detected for unlabelled HOIP and labelled HOIP-(5) conjugate within a peak elution range of 10 seconds were used to calculate the ratio of labelled HOIP RBR over total HOIP RBR content for each sample. The averaged data from 3 independent experiments were analyzed according to a two-step model of reversible ligand binding followed by irreversible covalent modification (Supplementary Figure S2A),11 fitted to a single exponential equation (equation 1, Supplementary Figure S2B) using GraFit (v.7). […]
# T2 sequence (Q96EP0 697-1072 C885S): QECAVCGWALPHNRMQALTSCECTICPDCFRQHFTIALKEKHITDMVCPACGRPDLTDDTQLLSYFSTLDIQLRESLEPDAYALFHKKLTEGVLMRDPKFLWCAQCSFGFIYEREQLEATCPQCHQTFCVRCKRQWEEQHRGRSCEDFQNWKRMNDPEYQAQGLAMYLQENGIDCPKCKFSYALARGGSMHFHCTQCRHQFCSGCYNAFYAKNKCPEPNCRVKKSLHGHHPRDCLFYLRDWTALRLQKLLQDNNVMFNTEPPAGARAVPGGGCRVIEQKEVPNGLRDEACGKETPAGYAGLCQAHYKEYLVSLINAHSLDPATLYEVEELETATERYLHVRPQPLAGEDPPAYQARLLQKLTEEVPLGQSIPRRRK
smiles,measurement,setting,value
COC(=O)/C=C/CNC(=O)c1cc2c([nH]c1=O)CCC2 [Compound 5],kinact/Kd,"[1]; gradient of kobs vs concentration, 0-400 μM, 2 μM protein",0.97 ± 0.01 M^–1 s^–1
same,"ligand efficiency, LE",[1]; inferred from lower limit of Kd,< 0.24
same,kinact,"[1]; lower limit, following from Kd limit",> 0.0004 s⁻¹
same,Kd,"[1]; lower limit, kobs linear across range tested",> 400 µM
same,labeling of HOIP RBR C885S,[2],did not result in protein labeling; also recorded: not labeled
